Test results: patent US5684151A, “1-arylsulphonyl, arylcarbonyl and 1-arylphosphonyl-3-phenyl-1,4,5,6-tetrahydropyridazines” (priority 1995, dated 1997)
Where two headings read alike, the source gives them in different places.

Tested on: mouse (MC3T3-E1) and human (TE-85) osteoblast-line cells
Type: cell-based
From the text: Compounds of the present invention have utility to treat osteoporosis through enhancement of bone calcification rather than traditional approaches which generally involve inhibition of bone degeneration or resorption. The compounds of the present invention have been evaluated as stimulators of proliferation of osteoblast cell and chick calivaria bone organ culture which is predictive of enhancement of bone mass and bone formation in vivo.
The action of select compounds to stimulate osteoblast growth was measured in culture by estimating the rate of DNA synthesis by the rate of ^3 H-thymidine incorporation into DNA. Only cells undergoing mitosis synthesized new DNA and thus only these cells incorporated the radiolabelled DNA-specific thymidine. The stimulation of the proliferation and differentiation of bone-forming cells, osteoblasts, was a prerequisite for an increase in bone formation and bone mass. The ability of agents to increase osteoblast proliferation and differentiation can be predicted by their action on cultured osteoblast-line cells in vitro. In this test, mouse (MC3T3-E1) and human (TE-85) osteoblast-line cells (American Type Tissue Culture Collection, #CRL 1543, Rockville, Md. cloned by Sudo et al., Koriyama, Japan) were cultured in vitro and the effect of various agents were tested on osteoblast cell proliferation. Cells were harvested from large culture flasks where they were allowed to grow to near confluency using trypsin. The cells were plated into 96 well culture plates, 1600 cells in 100 μL per well in Dulbencos Modified Eagle's Medium (DMEM) with 25 mM HEPES buffer, L-glutamine (584 mg/L); D-glucose (4.5 g/L) supplemented with fetal bovine sera (10%); penicillin (100 units/mL) and streptomycin (100 mcg/mL); sodium pyruvate (10 μM final concentration). The cells were allowed to plate overnight in DMEM containing 10% fetal bovine sera at 37° C. in an atmosphere of 5% CO2/95% air. Following their placement into 96 well culture plates all the osteoblast-line cells, either the MC3T3-E1 or the TE-85 cell lines, were allowed an additional 24 hours preincubation period in media containing only 0.1% fetal bovine sera.
Twenty hours later, a 20 μL aliquot of media containing 0.4 μCi of ^3 H-thymidine was added to each culture well. The cells were then incubated an additional 4 hours. The incubation was terminated by aspirating the media and washing with HBSS (Hank's Balanced Salt Solution). The cells were then treated with 100 μL of 0.5% trypsin and 5.3 mM EDTA for 30 minutes at room temperature. The cells were then aspirated onto glass fiber filter and washed with water. The radioactivity on the filters was quantified by liquid scintillation spectroscopy. The rate of ^3 H-thymidine incorporation into DNA was then utilized as an index of cell proliferation. The results are shown in Table 13 expressed as % times control where the control is 100%. […]

SMILES | Osteoblast Cell Proliferation, 3H-thymidine incorporation vs control (100%) (10^-7) [%] | Osteoblast Cell Proliferation, 3H-thymidine incorporation vs control (100%) (10^-8) [%] | Osteoblast Cell Proliferation, 3H-thymidine incorporation vs control (100%) (10^-9) [%] | Osteoblast Cell Proliferation, 3H-thymidine incorporation vs control (100%) (10^-10) [%] | Osteoblast Cell Proliferation, 3H-thymidine incorporation vs control (100%) (10^-6) [%]
CC1(C)CC(c2ccccc2)=NN(C(=O)c2ccc(Cl)c(Cl)c2)C1 [Compound 234] | 95 | 84 | 84 | 111 | –
O=S(=O)(/C=C/c1ccc2ccccc2c1)N1CCCC(c2ccc(Cl)c(Cl)c2)=N1 [Compound 171] | 110 | 121 | 118 | 129 | 72
O=C(c1ccc(F)c(Br)c1)N1CCCC(c2ccccc2)=N1 [Compound 229] | 104 | 86 | 99 | 114 | –
CC1CC(c2ccccc2)=NN(C(=O)c2ccc(Cl)c(Cl)c2)C1 (racemic) [Compound 233, (R,S)-1-(3,4-dichlorobenzoyl)-5-methyl-3-phenyl-1,4,5,6-tetrahydropyridazine] | 130 | 132 | 130 | 138 | –
O=S(=O)(/C=C/c1ccc(-c2ccccc2)cc1)N1CCCC(c2ccc(Cl)c(Cl)c2)=N1 [Compound 168] | 82 | 82 | 76 | 109 | 67
CC1CC(c2ccccc2)=NN(C(=S)c2ccc(Cl)c(Cl)c2)C1 (racemic) [Compound 248, (R,S)-1-(3,4-dichlorothiobenzoyl)-5-methyl-3-phenyl-1,4,5,6-tetrahydropyridazine] | 142 | 130 | 140 | 149 | –
CS(=O)(=O)c1ccc(S(=O)(=O)N2CCCC(c3ccc(Cl)c(Cl)c3)=N2)cc1 [Compound 275, 3-(3,4-Dichlorophenyl)-1-(4-methylsulfonylbenzenesulfonyl)-1,4,5,6-tetrahydropyridazine] | 145 | 153 | 128 | 136 | –
CCOP(=O)(c1ccccc1)N1CCCC(c2ccc(F)cc2)=N1 (stereo not shown) [Compound 259] | 96 | 102 | 121 | 106 | 116
COP(=O)(c1ccccc1)N1CCCC(c2ccc(Br)cc2)=N1 (stereo not shown) [Compound 260] | 115 | 105 | 99 | 90 | 100
O=S(=O)(c1cccc2ccccc12)N1CCCC(c2ccc(Cl)cc2)=N1 [Compound 44] | 107 | 105 | 95 | 87 | 86
S=C(c1cc(Cl)cc(Cl)c1)N1CCCC(c2ccc(Cl)c(Cl)c2)=N1 [Compound 244] | 119 | 134 | 129 | 144 | –
S=C(c1ccc(Cl)c(Cl)c1)N1CCCC(c2ccccc2)=N1 [Compound 237, 1-(3,4-dichlorothiobenzoyl)-3-phenyl-1,4,5,6-tetrahydropyridazine] | 113 | 113 | 110 | 119 | –
COP(=O)(c1ccccc1)N1CCCC(c2ccc(F)cc2)=N1 (stereo not shown) [Compound 258] | 107 | 108 | 107 | 98 | 107
S=C(c1cc(Cl)cc(Cl)c1)N1CCCC(c2ccccc2)=N1 [Compound 247] | 118 | 122 | 122 | 129 | –
S=C(c1ccc(Cl)c(Cl)c1)N1CCCC(c2ccc(Cl)c(Cl)c2)=N1 [Compound 243] | 118 | 92 | 96 | 89 | –
CCCCc1ccc(C2=NN(P(=O)(OC)c3ccccc3)CCC2)cc1 (stereo not shown) [Compound 251] | 104 | 111 | 91 | 111 | 109
Cc1ccc(/C=C/S(=O)(=O)N2CCCC(c3ccc(Cl)c(Cl)c3)=N2)cc1 [Compound 169] | 131 | 133 | 134 | 195 | 128
CC1CC(c2ccccc2)=NN(C(=O)c2ccc(F)c(F)c2)C1 (racemic) [Compound 235, (R,S)-1-(3,4-difluorobenzoyl)-5-methyl-3-phenyl-1,4,5,6-tetrahydropyridazine] | 86 | 87 | 92 | 88 | –
CCCCCCc1ccc(S(=O)(=O)N2CCCC(c3ccc(Cl)c(Cl)c3)=N2)cc1 [Compound 121] | 123 | 122 | 120 | 181 | 120
Nc1c(Br)cc(C2=NN(C(=O)c3ccc(Cl)c(Cl)c3)CCC2)cc1Br [Compound 265, (3-4-Amino-3,5-dibromophenyl)-1-(3,4-dichlorobenzoyl)-1,4,5,6-tetrahydropyridazine] | 110 | 112 | 112 | 115 | –
O=C(c1cc(Cl)cc(Cl)c1)N1CCCC(c2ccccc2)=N1 [Compound 232] | 110 | 115 | 115 | 121 | –
Fc1ccc(C(=S)N2CCCC(c3ccc(Cl)c(Cl)c3)=N2)cc1F [Compound 236, 3-(3,4-Dichlorophenyl)-1-(3,4-difluorothiobenzoyl)-1,4,5,6-tetrahydropyridazine] | 109 | 102 | 106 | 115 | –
